{"source": "patent US20040132055A1", "about": "“Recombinant chalcomycin polyketide synthase and modifying genes” (priority 2002, published 2004)", "origin": "cited, not measured here", "conditions": "spectrum, in words"}
{"smiles": "COC1CC(C)OC(OC2C(C)/C=C/C(=O)OC(C)C(COC3OC(C)C(O)C(OC)C3OC)C3OC3/C=C/C(=O)C(C)(O)CC2C)C1O", "note": "(stereo not shown) [Chalcomycin, chalcomycin]", "values": [{"measurement": "antimicrobial activity", "result": "broad spectrum of antimicrobial activity"}]}
